In assay [1] the test system is corneal neovascularization. As to the kind of experiment: Murine corneal angiogenesis model (bFGF pellet). To be noted: 2 μg/mouse/day i.p. for 5 days. Type of assay: in vivo, mice. Set-up: VL (maximum vessel length of the neovascularization zone): unit not given here. The method, then:
A murine corneal angiogenesis model was used to evaluate the inhibitory effect of Halofuginone in vivo. The angiogenic factor bFGF was applied into a corneal pocket in a pellet made of a slow release polymer, as described below, and Halofuginone (2 μg/mouse/day) was administered i.p. for 5 consecutive days. The pellets were made of the slow-release polymer Hydron (polyhydroxyethylmethacrylate [polyHEMA], Interferon Sciences, N.J.) containing sucralfate alone, or sucralfate and bGFG. A suspension of sterile saline 10 μg recombinant bFGF plus 10 mg of sucralfate was prepared and speed vacuumed for 5 minutes. To this suspension, 10 μl of 12% Hydron in ethanol was added. The suspension was then deposited onto an autoclave sterilized, 15×15 mm piece of nylon mesh (TETKO, 3-300/50, approximate pore size 0.4×0.4 mm) and embedded between the fibers resulting in a grid of 10×10 squares. Both sides of the mesh were then covered with a thin layer of Hydron to hydrophobically stabilize the pellet during implantation. These layers were allowed to dry on a sterile petri dish for 30 minutes. Subsequently, the fibers of the mesh were pulled apart under a microscope, and about 30-40 uniformly sized pellets of 0.4×0.2×0.2 mm, containing approximately 80-100 ng bGFG per pellet, were collected. Such pellets can be stored frozen at −20° C. for several weeks without loss of bioactivity. C57B⅙ mice of about 7-9 weeks of age were anesthetized with methoxyflurane. The eyes were topically anesthetized with 0.5% proparacaine, and the globe was proposed with a jeweler's forceps. A central, intrastromal linear keratotomy of approximately 0.6 mm length was performed with a surgical blade and a lamellar micropocket was dissected towards the temporal limbus. The temporal extent of the packet was within 0.7-1.0 mm of the limbus. A single pellet was then placed on the corneal surface at the base of the pocket with jeweler's forceps, and using one arm of the forceps, the pellet was advanced toward the temporal end of the pocket. Antibiotic ointment (erythromycin) was applied once to the operated eye, not only to prevent infection, but also to decrease irritation of the irregular ocular surface. […] On post-operative day 5, mice were anesthetized with methoxyflurane, the eyes were proptosed, and the maximum vessel length (VL) of the neovascularization zone extending from the base of the limbal vascular plexus toward the pellet was measured with a linear reticule through the slit lamp. The contiguous circumferential zone of neovascularization (CH) was measured as clock hours with a 360 degree reticule. […] The area of neovascularization was calculated according to the following formula: [formula] where A is area, CH is contiguous circumferential zone of neovascularization and VL is maximal vessel length.

Another assay concerns T50 bladder carcinoma. As to the kind of experiment: Inhibition of in vivo growth of T50 bladder carcinoma in C3H mice. Particulars: for tumor volume (group mean): Halofuginone containing diet 5 mg/kg; for T50 Tumor Size: individual mice, diet containing 5 mg/kg Halofuginone, day 17. The protocol:
C3H mice were divided into two groups (6 mice each). The experimental group received a diet containing 5 mg/kg of Halofuginone 3 days prior to the injection of T50 bladder carcinoma cells and during 2 weeks after. […] The right side received 0.4 * 10^5 cells, and the left side received 2 * 10^5 cells. The tumor size was estimated by measurement of tumor length in two directions, using the formula V=LW^2/2, where V is volume, L is length and W is width. At the end of the experiment at day 17, the mice were weighed, the tumors were excised and a sample of the tumor tissue was fixed and processed for histological examination.

In another assay the test system is 3T3 fibroblast cells. Particulars: in vitro; cited from earlier work.
Another assay concerns EHS sarcoma. As to the kind of experiment: Inhibition of in vivo growth of EHS tumor in C57BL/6 mice. The protocol: Animals bearing Engelbreth-Holm-Swarm (EHS) tumors were sacrificed and the tumor tissue was excised and minced under aseptic conditions. The EHS tumor is characterized by a large amount of basement membrane components. A suspension of the tumor tissue in 0.2 ml of PBS was injected subcutaneously in the dorsal posterior region of C57BL/6 male mice. The mice were divided into two groups of 10 mice each. The animals of the experimental group were fed with a diet containing 5 mg/kg Halofuginone for 3 days prior to tumor injection and during 3 weeks after. The tumor size was estimated by measurement of tumor length in two directions, using the formula V=LW^2/2. On the final day of the experiment, i.e., 20 days after tumor injector, the mice were weighed the tumors were exceed and a sample of the tumor tissue was fixed and processed for histological examination.

In assay [2] the test system is human leiomyosarcoma tumor cells. As to the kind of experiment: Proliferation ([3H]thymidine incorporation) of human leiomyosarcoma tumor cells. Format: cell-based. The protocol: Samples of human leiomyosarcoma tumors were obtained from women undergoing surgical hysterectomy, as described [R. S. Mangrulker, et al., ibid.]. Minced tissue was placed into 20 ml cold homogenization buffer: 1 M NaCl, 10 mM Tris (pH 7.4), 1 mM EDTA, 1 mM benzamidine, 0.1% CHAPS, 0.01% Aprotinin (Sigma), 10 μg/ml leupeptin, 1 mM AEBSF [R. S. Mangrulker, et al., ibid]. Samples were homogenized for 2 min and centrifuged at 12000 a g for 60 min at 4° C. The supernatants were diluted 1:5 with 10 mM Tris (pH 7.4) to a final volume of 100 ml and filtered with 0.45 μm nylon fibers. Cells were plated and maintained in DMEM plus 10% calf serum. The cells remained viable over a number of passages but were used at passages 2 or 3. For proliferation assays, cells were plated in 96-well plates at 10,000 cells/well an 200 μl medium (DMEM with 4.5 G/L glucose, 10% calf serum. 1% glutamine, 1% penicillin/streptomycin) and incubated 2 days until confluent. […] The medium was changed to DMEM with 0.5%calf serum, 1 μM insulin and 5 μM transferrin. After 24 h, the samples (5-10 μl) were added and after an additional 24 h, [^3H]thymidine (1 μCi/well) was added to each well. After 36-48 h incubation, the cells were fixed with methanol, and the DNA was precipitated with 5% trichloroacetic acid. The cells were lysed with 150 μl/well of 0.3 N NaOH, transferred to scintillation vials, and counted on a β-counter. […] The effect of Halofuginone on proliferation of HB-EGF (Heparin-Binding Epidermal Growth Factor) and serum-stimulated leiomyosarcoma cells was then examined. The leiomyosarcoma tumor cells were growth-arrested by 48 h incubation in medium containing 0.5% FCS. The cells were then exposed (24 h) to either 10% FCS or 10 ng/ml HB-EGF in the absence or presence of 10 ng/ml Halofuginone. [^3H]thymidine was then added and DNA synthesis measured 36 h later.

Where [3] appears, read: individual mice, post-operative day 5.

Values joined by “and” are separate entries in the source; they are usually repeats but may differ in a detail not shown here. Equal entries are not always repeated.

The values that follow come from patent US6420371B1, “Quinazolinone-containing pharmaceutical compositions for prevention of neovascularization and for treating malignancies” (Madasit Medical Research Services & Development Co., Ltd., priority 1997, dated 2002).

For the compound `O=C(CC1NCCCC1O)Cn1cnc2cc(Br)c(Cl)cc2c1=O` (stereo not drawn) [Halofuginone], in assay [1], the “inhibition of neovascularization area vs control” value is “about 29%”. The “average area of neovascularization” value in assay [1] (n=7, calculated from CH and VL) was 1.90 mm^2. In assay [1] (setting [3]), the “CH (contiguous circumferential zone of neovascularization)” value was 3.5 clock hours and 3 clock hours (3×) and 2.5 clock hours and 4 clock hours and 1 clock hours. Moreover, the “VL (maximum vessel length of the neovascularization zone)” value in assay [1] (setting [3]) is 1 (3×) and 1.1 and 1.2 and 0.9. For the same compound, the “reduction of tumor size compared to control mice” value with T50 bladder carcinoma (C3H mice, diet 5 mg/kg Halofuginone) is given as 70-80%; in the assay on EHS sarcoma (C57BL/6 mice, diet 5 mg/kg Halofuginone), “about 75%”. The “overall weight of mice” value with T50 bladder carcinoma (Halofuginone treated C3H mice, lower due to lower tumor burden) was 24 ± 3.1 g. The “tumor volume (group mean)” value with T50 bladder carcinoma (high tumor cell dose) turned out to be 1.0±0.92 cm^3; in the assay with T50 bladder carcinoma (lower tumor cell dose) it was 0.29±0.28 cm^3; with EHS sarcoma (C57BL/6 mice fed Halofuginone 5 mg/kg diet), 1.72±1.85 cm^3. In addition, the “T50 Tumor Size” value was 0.730 cm^3 and 0.510 cm^3 and 0.036 cm^3 and 0.064 cm^3 and 0.150 cm^3 in the assay with T50 bladder carcinoma (0.4 * 10^5 cells s.c.); 2.0 cm^3 and 1.1 cm^3 (2×) and 0.7 cm^3 and 0.1 cm^3 with T50 bladder carcinoma (2 * 10^5 cells s.c.). Moreover, the “proliferation of 3T3 fibroblast cells” value in the assay on 3T3 fibroblast cells is reported as “inhibit the proliferation”. The compound also showed a weight of mice with EHS sarcoma (Halofuginone-fed C57BL/6 mice, nearly normal weight) of 19.7 ± 0.47 g. Further, the “EHS Tumor Size” value with EHS sarcoma (individual mice, diet 5 mg/kg Halofuginone, 20 days after tumor injection) is 0 cm^3 (2×) and 2.2 cm^3 and 0.04 cm^3 and 6.5 cm^3 and 3.0 cm^3 and 1.3 cm^3 (2×) and 1.2 cm^3 and 1.7 cm^3. The “inhibition of cell proliferation induced by HB-EGF” value in assay [2] (10 ng/ml HB-EGF, 10 ng/ml Halofuginone, growth-arrested cells) is given as “complete inhibition”. For the same compound, the “inhibition of cell proliferation induced by serum” value in assay [2] (10% FCS, 10 ng/ml Halofuginone, growth-arrested cells) is “complete inhibition”. The same compound had an inhibition at 0.0025 µg/mL in assay [2] (Homo sapiens, 2.5 ng/ml Halofuginone (FIG. 11A)) of 60 to 70%.
